This passage reports Activity, ED25 and MTD results from ChEMBL document CHEMBL3243923, “Linked Aryl Aryloxypropanolamines as a new class of lipid catabolis agents” (J Med Chem, 1978).

Active and inactive are the calls of the source. No cut-off for these calls is given here.

The first series has as its system Mus musculus. Description: Antiobesity activity in mouse assessed as reduction in utero fat at 0.04% administered every day through diet for 10 days measured after day 10 relative to control. It is filed as functional. Details: scale not given: the % may be the effect or the level left.
Details: not given
In the case of `CCc1cc(/C=C/c2ccccc2C(F)(F)F)cc(CC)c1OCC(O)CNC(C)C` (stereo unspecified), the Activity turned out to be 20%.

For `CC(C)NCC(O)COc1c(C(C)(C)C)cc(/C=C/c2ccc3c(c2)OCO3)cc1C(C)(C)C` (stereo unspecified), the result was inactive.

On to `CC(C)NCC(O)COc1c(C(C)(C)C)cc([S+]([O-])c2ccccc2)cc1C(C)(C)C` (stereo unspecified), for which the result was inactive. Consider `CC(C)NCC(O)COc1ccc(Sc2ccc(Cl)cc2)cc1` (stereo unspecified), for which the Activity is recorded as 22%. In the case of `CC(C)NCC(O)COc1c(C(C)(C)C)cc(/C=C/c2ccc([N+](=O)[O-])cc2)cc1C(C)(C)C` (stereo unspecified), the Activity was 45%. In the case of `COc1ccc(-c2cc(C(C)(C)C)c(OCC(O)CNC(C)C)c(C(C)(C)C)c2)cc1` (stereo unspecified), the outcome was inactive. With `CCC(C)c1cc(/C=C/c2ccccc2)cc(C(C)CC)c1OCC(O)CNC(C)C` (stereo unspecified), the outcome was inactive.

On to `CC(C)NCC(O)COc1ccc(-c2ccccc2)cc1` (stereo unspecified), for which the Activity stood at 24%. On to `CC(C)NCC(O)COc1c(C(C)(C)C)cc(/C=C/c2ccccc2)cc1C(C)(C)C` (single isomer, unassigned; (+)), for which the outcome was inactive. Consider `CCNCC(O)COc1c(C(C)(C)C)cc(/C=C/c2ccccc2)cc1C(C)(C)C` (stereo unspecified), for which the Activity is 24%. With `CC(C)(C)c1cc(/C=C/c2ccccc2)cc(C(C)(C)C)c1OCC(O)CNCCNC(=O)Nc1ccccc1` (stereo unspecified), the result was inactive. Same read-out and setting: to `CCCCNCC(O)COc1c(C(C)(C)C)cc(/C=C/c2ccccc2)cc1C(C)(C)C` (stereo unspecified) belongs 25%; to `CC(C)NCC(O)COc1c(C(C)(C)C)cc(S(=O)(=O)c2ccc(Cl)cc2)cc1C(C)(C)C` (stereo unspecified), “inactive”; to `CCCCN(CCCC)CCCNCC(O)COc1c(C(C)(C)C)cc(/C=C/c2ccccc2)cc1C(C)(C)C.O=C(O)/C=C\C(=O)O` (stereo unspecified), 25%.

Consider `CC(C)NCC(O)COc1ccc(S(=O)(=O)c2ccc(Cl)cc2)cc1` (stereo unspecified), for which the outcome was inactive.

Consider `CC(C)NCC(O)COc1c(C(C)(C)C)cc(/C=C/c2cccc3ccccc23)cc1C(C)(C)C` (stereo unspecified), for which the result was inactive. Consider `CC(C)NCC(O)COc1c(C2CCCCC2)cc(/C=C/c2ccccc2)cc1C1CCCCC1.O=C(O)/C=C\C(=O)O` (stereo unspecified), for which the Activity turned out to be 27%. Still for that read-out and setting: to `CC(C)NCC(O)COc1c(C(C)(C)C)cc(S(=O)(=O)c2ccccc2)cc1C(C)(C)C` (stereo unspecified) belongs “inactive”.

For `CC(C)(C)NCC(O)COc1c(C(C)(C)C)cc(/C=C/c2ccccc2)cc1C(C)(C)C` (stereo unspecified), the Activity came to 20%. The same measure, in the same setting: to `CC(C)(C)c1cc(/C=C/c2ccccc2)cc(C(C)(C)C)c1OCC(O)CNCc1ccccc1` (stereo unspecified) belongs “inactive”; to `Cc1cc(/C=C/c2ccccc2)cc(C)c1OCC(O)CNC(C)C` (stereo unspecified), 31%; to `CCN(CC)CCCNCC(O)COc1c(C(C)(C)C)cc(/C=C/c2ccccc2)cc1C(C)(C)C` (stereo unspecified), “inactive”.

On to `CNCC(O)COc1c(C(C)(C)C)cc(/C=C/c2ccccc2)cc1C(C)(C)C.O.O=C(O)C(=O)O` (stereo unspecified), for which the Activity is given as 44%. Same read-out and setting: with `Cc1ccc(/C=C/c2cc(C(C)(C)C)c(OCC(O)CNC(C)C)c(C(C)(C)C)c2)cc1` (stereo unspecified) the entry was “inactive”; with `CC(C)NCC(O)COc1c(C(C)(C)C)cc(Oc2ccc(Cl)cc2)cc1C(C)(C)C` (stereo unspecified), “inactive”; with `CC(C)NCC(O)COc1ccc(/C=C/c2ccncc2)cc1` (stereo unspecified), 24%.

`CC(C)CNCC(O)COc1c(C(C)(C)C)cc(/C=C/c2ccccc2)cc1C(C)(C)C` (stereo unspecified): the result was inactive. Turning to `CC(C)NCC(O)COc1ccc([S+]([O-])c2ccc(Cl)cc2)cc1` (stereo unspecified), the result was inactive. Same read-out and setting: to `CC(C)NCC(O)COc1c(C(C)(C)C)cc(/C=C/c2ccccc2)cc1C(C)(C)C` (stereo unspecified) belongs 39%; to `Cc1ccccc1/C=C/c1cc(C(C)(C)C)c(OCC(O)CNC(C)C)c(C(C)(C)C)c1` (stereo unspecified), 42%. For the molecule `CC(C)NCC(O)COc1c(C(C)(C)C)cc(Sc2ccccc2)cc1C(C)(C)C` (stereo unspecified), the outcome was inactive. Same read-out and setting: to `CC(C)NCC(O)COc1c(C(C)(C)C)cc(C#Cc2ccccc2)cc1C(C)(C)C.O=C(O)/C=C\C(=O)O` (stereo unspecified) belongs 25%; to `CN(C)CCCNCC(O)COc1c(C(C)(C)C)cc(/C=C/c2ccccc2)cc1C(C)(C)C.Cl` (stereo unspecified), 45%; to `CC(C)NCC(O)COc1c(C(C)(C)C)cc(/C=C/c2ccc(F)cc2)cc1C(C)(C)C` (stereo unspecified), “inactive”. Same read-out and setting: to `CC(C)NCC(O)COc1c(C(C)(C)C)cc(Sc2ccc(Cl)cc2)cc1C(C)(C)C` (stereo unspecified) belongs “inactive”.

With `CC(C)NCC(O)COc1ccc(C#Cc2ccccc2)cc1` (stereo unspecified), the Activity was found to be 28%. On the same count and under the same terms, to `CN(C)CCNCC(O)COc1c(C(C)(C)C)cc(/C=C/c2ccccc2)cc1C(C)(C)C` (stereo unspecified) belongs “inactive”; to `CCc1cc(/C=C/c2ccccc2F)cc(CC)c1OCC(O)CNC(C)C` (stereo unspecified), 37%; to `COc1ccc(/C=C/c2cc(C(C)(C)C)c(OCC(O)CNC(C)(C)C)c(C(C)(C)C)c2)cc1Br` (stereo unspecified), “inactive”.

Regarding `CCC(C)NCC(O)COc1c(C(C)(C)C)cc(/C=C/c2ccccc2)cc1C(C)(C)C` (stereo unspecified), the Activity stood at 23%. Take `CC(C)NCC(O)COc1c(C(C)(C)C)cc([S+]([O-])c2ccc(Cl)cc2)cc1C(C)(C)C.O=C(O)/C=C\C(=O)O` (stereo unspecified): the Activity worked out at 23%. Still for that read-out and setting: to `Cc1ccc(/C=C/c2cc(C(C)(C)C)c(OCC(O)CNC(C)C)c(C(C)(C)C)c2)cc1C` (stereo unspecified) belongs “inactive”; to `CC(C)NCC(O)COc1c(C(C)(C)C)cc(/C=C/c2ccccc2Cl)cc1C(C)(C)C` (stereo unspecified), “inactive”. Regarding `CC(C)NCC(O)COc1c(C(C)(C)C)cc(/C=C/c2ccc(Cl)c(Cl)c2)cc1C(C)(C)C` (stereo unspecified), the outcome was inactive.

For the molecule `CC(C)NCC(O)COc1c(C(C)(C)C)cc(/C=C/c2ccc3ccccc3c2)cc1C(C)(C)C` (stereo unspecified), the result was inactive. Consider `COc1ccc(/C=C/c2cc(C(C)(C)C)c(OCC(O)CNC(C)C)c(C(C)(C)C)c2)cc1Br` (stereo unspecified), for which the outcome was inactive. As to `CC(C)(C)c1cc(/C=C/c2ccccc2)cc(C(C)(C)C)c1OCC(O)CNCCO` (stereo unspecified), the outcome was inactive. Regarding `CC(C)NCC(O)COc1c(C(C)C)cc(/C=C/c2ccccc2)cc1C(C)C` (stereo unspecified), the Activity turned out to be 20%. Consider `CC(C)(C)c1cc(/C=C/c2ccccc2)cc(C(C)(C)C)c1OCC(O)CNC1CCCCC1` (stereo unspecified), for which the Activity was 24%.

In the case of `CC(C)(C)c1cc(/C=C/c2ccccc2)cc(C(C)(C)C)c1OCC(O)CNC1CC1` (stereo unspecified), the outcome was inactive. Still for that read-out and setting: with `CC(C)NCC(O)COc1c(C(C)(C)C)cc(/C=C/c2ccc(C(C)(C)C)cc2)cc1C(C)(C)C` (stereo unspecified) the entry was “inactive”; with `CC(C)NCC(O)COc1c(C(C)(C)C)cc(CCc2ccccc2)cc1C(C)(C)C` (stereo unspecified), “inactive”; with `CCCNCC(O)COc1c(C(C)(C)C)cc(/C=C/c2ccccc2)cc1C(C)(C)C` (stereo unspecified), “inactive”. For `Cc1cc(/C=C/c2ccccc2)cc(C(C)(C)C)c1OCC(O)CNC(C)C` (stereo unspecified), the result was inactive. For the molecule `CCCCCCNCC(O)COc1c(C(C)(C)C)cc(/C=C/c2ccccc2)cc1C(C)(C)C` (stereo unspecified), the outcome was inactive.

The subject of another series is Mus musculus. Put plainly: Antiobesity activity in mouse assessed as reduction in utero fat administered every day through diet for 10 days measured after day 10. It is filed as functional. The settings on record: 240 h.
In the case of `CC(C)NCC(O)COc1c(C2CCCCC2)cc(/C=C/c2ccccc2)cc1C1CCCCC1.O=C(O)/C=C\C(=O)O` (stereo unspecified), the ED25 came out at 38 mg/kg. On to `CC(C)NCC(O)COc1c(C(C)(C)C)cc([S+]([O-])c2ccc(Cl)cc2)cc1C(C)(C)C.O=C(O)/C=C\C(=O)O` (stereo unspecified), for which the ED25 amounted to 45 mg/kg.

Tested on in another series: not listed separately
Description: Chronic toxicity in po dosed mouse assessed as mortality administered as qd for 21 days. The note with it: in vivo, read-out: MNTD. In kind it is organism-based.
`CC(C)NCC(O)COc1c(C2CCCCC2)cc(/C=C/c2ccccc2)cc1C1CCCCC1.O=C(O)/C=C\C(=O)O` (stereo unspecified): the MTD at 504 h amounted to 100 mg/kg. Same read-out and setting: with `CC(C)NCC(O)COc1c(C(C)(C)C)cc([S+]([O-])c2ccc(Cl)cc2)cc1C(C)(C)C.O=C(O)/C=C\C(=O)O` (stereo unspecified) the figure was 75 mg/kg.

For a further series, the system named is Mus musculus. Description: Toxicity in mouse assessed as liver hypertrophy at 1000 mg/kg, po administered for 21 days. It is filed as organism-based. Details: dose 1000 mg/kg, route oral. The settings on record: in vivo, 504 h.
As to `CC(C)NCC(O)COc1c(C2CCCCC2)cc(/C=C/c2ccccc2)cc1C1CCCCC1.O=C(O)/C=C\C(=O)O` (stereo unspecified), the Activity entry was “Non-toxic”. On to `CC(C)NCC(O)COc1c(C(C)(C)C)cc([S+]([O-])c2ccc(Cl)cc2)cc1C(C)(C)C.O=C(O)/C=C\C(=O)O` (stereo unspecified), for which the Activity result is given as “Non-toxic”.
